Test results taken from the supplement of paper PMC10331698.
± gives the standard deviation of the averaged measurements.

How the values were obtained:
Assay in all cases: level (log10 ratio to DMSO vehicle control); higher = higher biomarker level / cell amount than vehicle control
[1] = compound: OCC(F)(F)C(F)(F)C(F)(F)C(F)F [1H,1H,5H-Perfluoropentanol] (in DMSO)
Method: (§1)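 BioMAP Diversity Plus panel of 12 human primary cell co-culture systems (3C, 4H, LPS, SAg, BT, BF4T, BE3C, CASM3C, HDF3CGF, KF3CT, MyoF, Mphg). Compounds were added 1 h before stimulation and left for 24 h (MyoF 48 h; BT 72 h for soluble read-outs or 6 d for IgG). Biomarkers were read by ELISA, cytotoxicity by SRB, PBMC viability and proliferation by Alamar Blue. Each well value was divided by the mean of 8 DMSO control wells on the same plate and log10 transformed; duplicate blinded samples were tested at 4 concentrations.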

[2] = compound: O=S(=O)(O)CCC(F)(F)C(F)(F)C(F)(F)C(F)(F)C(F)(F)C(F)(F)C(F)(F)C(F)(F)F [8:2 Fluorotelomer sulfonic acid] (in DMSO)
Method: as §1

[3] = compound: O=S(=O)(O)C(F)(F)C(F)(F)OC(F)(F)C(F)(F)F [Perfluoro(2-ethoxyethane)sulfonic acid] (in DMSO)
Method: as §1

[4] = compound: CO[Si](C)(CCC(F)(F)C(F)(F)C(F)(F)C(F)(F)C(F)(F)C(F)(F)F)OC [Dimethoxymethyl((perfluorohexyl)ethyl)silane] (in DMSO)
Method: as §1

[5] = compound: CN(C(=O)C(F)(F)C(F)(F)C(F)(F)F)[Si](C)(C)C [N-Methyl-N-trimethylsilylheptafluorobutyramide] (in DMSO)
Method: as §1

[6] = compound: O=C(O)C(F)(F)C(F)(F)C(F)(F)OC(F)(F)F [Perfluoro(4-methoxybutanoic) acid] (in DMSO)
Method: as §1

[7] = compound: C=C(C)C(=O)OCCC(F)(F)C(F)(F)C(F)(F)C(F)(F)C(F)(F)C(F)(F)C(F)(F)C(F)(F)F [8:2 Fluorotelomer methacrylate] (in DMSO)
Method: as §1

| Test System | level (log10) ([1]; 6700 nM) | level (log10) ([1]; 20000 nM) | level (log10) ([1]; 60000 nM) | level (log10) ([2]; 6700 nM) | level (log10) ([2]; 20000 nM) | level (log10) ([2]; 60000 nM) | level (log10) ([3]; 6700 nM) | level (log10) ([3]; 20000 nM) | level (log10) ([3]; 60000 nM) | level (log10) ([4]; 6700 nM) | level (log10) ([4]; 20000 nM) | level (log10) ([5]; 6700 nM) | level (log10) ([5]; 20000 nM) | level (log10) ([5]; 60000 nM) | level (log10) ([6]; 6700 nM) | level (log10) ([6]; 20000 nM) | level (log10) ([6]; 60000 nM) | level (log10) ([7]; 6700 nM) | level (log10) ([7]; 20000 nM) |
| --- | --- | --- | --- | --- | --- | --- | --- | --- | --- | --- | --- | --- | --- | --- | --- | --- | --- | --- | --- |
| BF4T:CD106/VCAM-1 | -0.019 ± 0.085 | 0.0225 ± 0.029 | 0.021 ± 0.081 | 0.0035 ± 0.035 | -0.0285 ± 0.03 | -0.041 ± 0.0028 | 0.003 ± 0.0057 | 0.0045 ± 0.028 | 0.021 ± 0.055 | 0.018 ± 0.0014 | -0.003 ± 0.02 | 0.0095 ± 0.025 | 0.0315 ± 0.015 | 0.0035 ± 0.026 | -0.005 ± 0.023 | -0.012 ± 0.0071 | -0.0015 ± 0.04 | -0.0225 ± 0.00071 | -0.0495 ± 0.022 |
| BF4T:CXCL8/IL-8 | 0.037 ± 0.083 | 0.0505 ± 0.07 | 0.0685 ± 0.046 | 0.0015 ± 0.0035 | -0.0105 ± 0.0078 | -0.0055 ± 0.0078 | 0.008 ± 0.0099 | 0.005 ± 0.024 | 0.0365 ± 0.011 | -0.005 ± 0.027 | 0.012 ± 0.018 | -0.008 ± 0.024 | -0.0025 ± 0.018 | 0.0025 ± 0.019 | 0.04 ± 0.069 | 0.014 ± 0.086 | 0.0245 ± 0.028 | -0.026 ± 0.014 | -0.023 ± 0.021 |
| BF4T:IL-1alpha | -0.02 ± 0.0085 | 0.03 ± 0.044 | 0.0195 ± 0.018 | 0.004 ± 0.016 | -0.01 ± 0.014 | 0.0065 ± 0.018 | -0.0065 ± 0.0078 | -0.016 ± 0.0071 | 0.0165 ± 0.0092 | -0.0245 ± 0.0078 | 0.014 ± 0.035 | -0.015 ± 0.016 | -0.0135 ± 0.016 | 0.015 ± 0.042 | 0.007 ± 0.013 | 0.008 ± 0.028 | -0.003 ± 0.023 | -0.009 ± 0.0057 | 0.008 ± 0.016 |
| BF4T:Keratin 8/18 | -0.046 ± 0.033 | 0.006 ± 0.044 | 0.0235 ± 0.023 | 0.004 ± 0.0099 | -0.0005 ± 0.018 | 0.0245 ± 0.0078 | 0.0015 ± 0.012 | -0.01 ± 0.0028 | 0.023 ± 0.037 | 0.029 ± 0.034 | 0.006 ± 0.016 | -0.0105 ± 0.052 | 0.0115 ± 0.03 | 0.013 ± 0.017 | 0.0035 ± 0.032 | 0.001 ± 0.05 | 0.013 ± 0.045 | -0.019 ± 0.0028 | 0.0115 ± 0.016 |
